Measurements: the supplement of paper PMC4862054

test system: MDA-MB-453; assay: normalised response (% of control), CellTiter-Glo; higher = more viable cells (100 = DMSO, 0 = benzethonium chloride kill control); details: incubation time: 72 h
Description: (§1)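 DSRT, 72 h incubation, CellTox Green / CellTiter-Glo readout. Signal is normalised to DMSO and benzethonium chloride controls. Value is the normalised response at the highest dose.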

Q: CC(C)N(CCCNC(=O)Nc1ccc(C(C)(C)C)cc1)C[C@H]1O[C@@H](n2cc(Br)c3c(N)ncnc32)[C@H](O)[C@@H]1O [SGC0946] (10000 nM) was tested. Which normalised response did it give?
A: 69.3%

test system: CAL-120; assay: as above; details: incubation time: 72 h
Description: as §1

Q: For CC/C(=C(\c1ccc(O)cc1)c1ccc(OCCN(C)C)cc1)c1ccccc1 [4-hydroxytamoxifen] (10000 nM), which normalised response is on record?
A: 76.5%

Q: Which normalised response does the source give for O=S(=O)(c1cccc2cnccc12)N1CCCNCC1 [Fasudil] (50000 nM) here?
A: 67.1%

Q: Cc1cccc(-c2nn3c(c2-c2ccnc4ccc(C(N)=O)cc24)CCC3)n1 [Galunisertib] (1000 nM) was tested. Which normalised response did it give?
A: 105%

Q: CC(C)N(CCCNC(=O)Nc1ccc(C(C)(C)C)cc1)C[C@H]1O[C@@H](n2cc(Br)c3c(N)ncnc32)[C@H](O)[C@@H]1O [SGC0946] (10000 nM) was tested. Which normalised response did it give?
A: 102%

test system: HDQ-P1; assay: as above; details: incubation time: 72 h
Description: as §1

Q: CC/C(=C(\c1ccc(O)cc1)c1ccc(OCCN(C)C)cc1)c1ccccc1 [4-hydroxytamoxifen] (10000 nM) was tested. Which normalised response did it give?
A: 73.1%

Q: For O=S(=O)(c1cccc2cnccc12)N1CCCNCC1 [Fasudil] (50000 nM), which normalised response is on record?
A: 89%

Q: Cc1cccc(-c2nn3c(c2-c2ccnc4ccc(C(N)=O)cc24)CCC3)n1 [Galunisertib] (1000 nM) was tested. Which normalised response did it give?
A: 105%

Q: With CC(C)N(CCCNC(=O)Nc1ccc(C(C)(C)C)cc1)C[C@H]1O[C@@H](n2cc(Br)c3c(N)ncnc32)[C@H](O)[C@@H]1O [SGC0946] (10000 nM) as the molecule, how does the normalised response read?
A: 87.2%

test system: DU-4475; assay: as above; details: incubation time: 72 h
Description: as §1

Q: CC/C(=C(\c1ccc(O)cc1)c1ccc(OCCN(C)C)cc1)c1ccccc1 [4-hydroxytamoxifen] (10000 nM) was tested. Which normalised response did it give?
A: 84%

Q: How did the normalised response turn out when O=S(=O)(c1cccc2cnccc12)N1CCCNCC1 [Fasudil] (50000 nM) was run?
A: 86.3%

Q: For Cc1cccc(-c2nn3c(c2-c2ccnc4ccc(C(N)=O)cc24)CCC3)n1 [Galunisertib] (1000 nM), which normalised response is on record?
A: 108%

Q: For CC(C)N(CCCNC(=O)Nc1ccc(C(C)(C)C)cc1)C[C@H]1O[C@@H](n2cc(Br)c3c(N)ncnc32)[C@H](O)[C@@H]1O [SGC0946] (10000 nM), which normalised response is on record?
A: 94.3%

test system: HCC1937; assay: as above; details: incubation time: 72 h
Description: as §1

Q: With CC/C(=C(\c1ccc(O)cc1)c1ccc(OCCN(C)C)cc1)c1ccccc1 [4-hydroxytamoxifen] (10000 nM) as the molecule, how does the normalised response read?
A: 25.4%

Q: For O=S(=O)(c1cccc2cnccc12)N1CCCNCC1 [Fasudil] (50000 nM), which normalised response is on record?
A: 96.5%

Q: Which normalised response does the source give for Cc1cccc(-c2nn3c(c2-c2ccnc4ccc(C(N)=O)cc24)CCC3)n1 [Galunisertib] (1000 nM) here?
A: 101%

Q: Which normalised response does the source give for CC(C)N(CCCNC(=O)Nc1ccc(C(C)(C)C)cc1)C[C@H]1O[C@@H](n2cc(Br)c3c(N)ncnc32)[C@H](O)[C@@H]1O [SGC0946] (10000 nM) here?
A: 84.2%

test system: MFM-223; assay: as above; details: incubation time: 72 h
Description: as §1

Q: With CC/C(=C(\c1ccc(O)cc1)c1ccc(OCCN(C)C)cc1)c1ccccc1 [4-hydroxytamoxifen] (10000 nM) as the molecule, how does the normalised response read?
A: 45.5%

Q: Which normalised response does the source give for O=S(=O)(c1cccc2cnccc12)N1CCCNCC1 [Fasudil] (50000 nM) here?
A: 88.2%

Q: For Cc1cccc(-c2nn3c(c2-c2ccnc4ccc(C(N)=O)cc24)CCC3)n1 [Galunisertib] (1000 nM), which normalised response is on record?
A: 108%

Q: With CC(C)N(CCCNC(=O)Nc1ccc(C(C)(C)C)cc1)C[C@H]1O[C@@H](n2cc(Br)c3c(N)ncnc32)[C@H](O)[C@@H]1O [SGC0946] (10000 nM) as the molecule, how does the normalised response read?
A: 81.2%

test system: MDA-MB-436; assay: as above; details: incubation time: 72 h
Description: as §1

Q: With CC/C(=C(\c1ccc(O)cc1)c1ccc(OCCN(C)C)cc1)c1ccccc1 [4-hydroxytamoxifen] (10000 nM) as the molecule, how does the normalised response read?
A: 35%

Q: How did the normalised response turn out when O=S(=O)(c1cccc2cnccc12)N1CCCNCC1 [Fasudil] (50000 nM) was run?
A: 90.2%

Q: With Cc1cccc(-c2nn3c(c2-c2ccnc4ccc(C(N)=O)cc24)CCC3)n1 [Galunisertib] (1000 nM) as the molecule, how does the normalised response read?
A: 112%

Q: Which normalised response does the source give for CC(C)N(CCCNC(=O)Nc1ccc(C(C)(C)C)cc1)C[C@H]1O[C@@H](n2cc(Br)c3c(N)ncnc32)[C@H](O)[C@@H]1O [SGC0946] (10000 nM) here?
A: 93.8%

test system: MDA-MB-231; assay: as above; details: incubation time: 72 h
Description: as §1

Q: Which normalised response does the source give for CC/C(=C(\c1ccc(O)cc1)c1ccc(OCCN(C)C)cc1)c1ccccc1 [4-hydroxytamoxifen] (10000 nM) here?
A: 41.1%

Q: With O=S(=O)(c1cccc2cnccc12)N1CCCNCC1 [Fasudil] (50000 nM) as the molecule, how does the normalised response read?
A: 70.1%

Q: With Cc1cccc(-c2nn3c(c2-c2ccnc4ccc(C(N)=O)cc24)CCC3)n1 [Galunisertib] (1000 nM) as the molecule, how does the normalised response read?
A: 98.3%

Q: With CC(C)N(CCCNC(=O)Nc1ccc(C(C)(C)C)cc1)C[C@H]1O[C@@H](n2cc(Br)c3c(N)ncnc32)[C@H](O)[C@@H]1O [SGC0946] (10000 nM) as the molecule, how does the normalised response read?
A: 74.7%

test system: BT-549; assay: as above; details: incubation time: 72 h
Description: (§2)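 DSRT, 72 h incubation, CellTox Green / CellTiter-Glo readout. Signal is normalised to DMSO and benzethonium chloride controls. Value is the normalised response at dose 3.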

Q: Which normalised response does the source give for CS(=O)(=O)N1CCN(Cc2cc3nc(-c4cccc5[nH]ncc45)nc(N4CCOCC4)c3s2)CC1 [Pictilisib] (100 nM) here?
A: 86.7%

test system: SK-BR-3; assay: as above; details: incubation time: 72 h
Description: as §2

Q: With CS(=O)(=O)N1CCN(Cc2cc3nc(-c4cccc5[nH]ncc45)nc(N4CCOCC4)c3s2)CC1 [Pictilisib] (100 nM) as the molecule, how does the normalised response read?
A: 74.1%

test system: MCF-10A; assay: as above; details: incubation time: 72 h
Description: as §2

Q: For CS(=O)(=O)N1CCN(Cc2cc3nc(-c4cccc5[nH]ncc45)nc(N4CCOCC4)c3s2)CC1 [Pictilisib] (100 nM), which normalised response is on record?
A: 84.8%

test system: HCC1143; assay: as above; details: incubation time: 72 h
Description: as §2

Q: CS(=O)(=O)N1CCN(Cc2cc3nc(-c4cccc5[nH]ncc45)nc(N4CCOCC4)c3s2)CC1 [Pictilisib] (100 nM) was tested. Which normalised response did it give?
A: 91.7%

test system: BT-474; assay: as above; details: incubation time: 72 h
Description: as §2

Q: Which normalised response does the source give for CS(=O)(=O)N1CCN(Cc2cc3nc(-c4cccc5[nH]ncc45)nc(N4CCOCC4)c3s2)CC1 [Pictilisib] (100 nM) here?
A: 86.9%

test system: CAL-85-1; assay: as above; details: incubation time: 72 h
Description: as §2

Q: With CS(=O)(=O)N1CCN(Cc2cc3nc(-c4cccc5[nH]ncc45)nc(N4CCOCC4)c3s2)CC1 [Pictilisib] (100 nM) as the molecule, how does the normalised response read?
A: 106%

test system: CAL-148; assay: as above; details: incubation time: 72 h
Description: as §2

Q: How did the normalised response turn out when CS(=O)(=O)N1CCN(Cc2cc3nc(-c4cccc5[nH]ncc45)nc(N4CCOCC4)c3s2)CC1 [Pictilisib] (100 nM) was run?
A: 98.4%

test system: HCC1599; assay: as above; details: incubation time: 72 h
Description: as §2

Q: CS(=O)(=O)N1CCN(Cc2cc3nc(-c4cccc5[nH]ncc45)nc(N4CCOCC4)c3s2)CC1 [Pictilisib] (100 nM) was tested. Which normalised response did it give?
A: 93.6%

test system: MDA-MB-453; assay: as above; details: incubation time: 72 h; remark: another data set of the same source
Description: as §2

Q: CS(=O)(=O)N1CCN(Cc2cc3nc(-c4cccc5[nH]ncc45)nc(N4CCOCC4)c3s2)CC1 [Pictilisib] (100 nM) was tested. Which normalised response did it give?
A: 88.5%

test system: CAL-120; assay: as above; details: incubation time: 72 h; remark: another data set of the same source
Description: as §2

Q: Which normalised response does the source give for CS(=O)(=O)N1CCN(Cc2cc3nc(-c4cccc5[nH]ncc45)nc(N4CCOCC4)c3s2)CC1 [Pictilisib] (100 nM) here?
A: 89.6%

test system: HDQ-P1; assay: as above; details: incubation time: 72 h; remark: another data set of the same source
Description: as §2

Q: For CS(=O)(=O)N1CCN(Cc2cc3nc(-c4cccc5[nH]ncc45)nc(N4CCOCC4)c3s2)CC1 [Pictilisib] (100 nM), which normalised response is on record?
A: 82.4%

test system: DU-4475; assay: as above; details: incubation time: 72 h; remark: another data set of the same source
Description: as §2

Q: How did the normalised response turn out when CS(=O)(=O)N1CCN(Cc2cc3nc(-c4cccc5[nH]ncc45)nc(N4CCOCC4)c3s2)CC1 [Pictilisib] (100 nM) was run?
A: 92%

test system: HCC1937; assay: as above; details: incubation time: 72 h; remark: another data set of the same source
Description: as §2

Q: Which normalised response does the source give for CS(=O)(=O)N1CCN(Cc2cc3nc(-c4cccc5[nH]ncc45)nc(N4CCOCC4)c3s2)CC1 [Pictilisib] (100 nM) here?
A: 94.7%

test system: MDA-MB-436; assay: as above; details: incubation time: 72 h; remark: another data set of the same source
Description: as §2

Q: CS(=O)(=O)N1CCN(Cc2cc3nc(-c4cccc5[nH]ncc45)nc(N4CCOCC4)c3s2)CC1 [Pictilisib] (100 nM) was tested. Which normalised response did it give?
A: 92%

test system: MDA-MB-231; assay: as above; details: incubation time: 72 h; remark: another data set of the same source
Description: as §2

Q: With CS(=O)(=O)N1CCN(Cc2cc3nc(-c4cccc5[nH]ncc45)nc(N4CCOCC4)c3s2)CC1 [Pictilisib] (100 nM) as the molecule, how does the normalised response read?
A: 86.2%
